In article PMC4619319, “A potent anti-inflammatory peptide from the salivary glands of horsefly” (Parasites & Vectors, 2015):

Legend:
Type in all cases: cell-based, mouse
nitrite production = assay: LPS-stimulated nitrite (NO) production in peritoneal macrophages; details: 100 ng/mL LPS, 24 h
Method: Cells were incubated with peptides (0, 5, 10, and 20 μg/mL) in the presence or absence of LPS (100 ng/mL, from Escherichia coli 0111:B4, Sigma-Aldrich, USA). After 6-h incubation, cells in one plate were washed twice with ice-cold PBS and lysed by Trizol reagent (Life Tech, USA) for total RNA extraction. PrimeScript® Reverse Transcriptase Kit (Takara, Japan) was used to synthesize cDNA for qPCR to examine the transcription levels of inducible nitric oxide synthase (iNOS), which is necessary for NO production. After 24-h incubation, culture medium of each wells of another plate was harvested for nitrite detection, which indirectly reflected the NO production. Nitrite accumulation levels were determined by NO detection kit (Beyotime, China) following the kit instruction.

P-JNK2 = assay: Western blot, LPS-induced P-JNK2 in peritoneal macrophages; details: 20 μg/mL peptide, 100 ng/mL LPS, 30 min, band density ratio to β-actin
Method: (§1) Cells were treated with different concentrations of cecropin-TY1 (0, 5, 10, and 20 μg/mL) in the presence or absence of 100 ng/mL LPS (from E. coli 0111:B4, Sigma-Aldrich, USA). After 30-min incubation, cells were washed twice with ice-cold PBS and lysed with RIPA lysis buffer (Beyotime, China) on ice for 30 min according to our previous method. Protein concentration was quantified by BCA Protein Assay Kit (Thermo, Germany). About 40 μg protein was separated on a 10 % SDS-PAGE gel and transferred to a polyvinylidene difluoride membrane. The membrane was blocked by incubating with 5 % BSA (BD, USA) dissolved in Tris-buffered solution Tween-20 (TBST, 2.42 g/L Trisbase, 8 g/L NaCl, 0.1 % Tween 20, pH 7.6) for 2 h at room temperature. The membrane was then incubated with primary antibodies against ERK, phospho-ERK, p38, phospho-p38, JNK, phospho-JNK, phospho-IκBα, NF-κB p65 and phospho-NF-κB p65 (1:2000, Cell Signaling Technology, USA) and GAPDH/β-actin (1:5000, Santa Cruz Biotechnology, USA) overnight at 4 °C, respectively. After incubation, the immunoblot was washed three times with TBST for 5 min each time, and incubated with secondary antibody (1:5000, Cell Signaling Technology, USA) at room temperature for 1 h. Signals were measured by enhanced chemiluminescence kit in a dark room after washing three times with TBST for 10 min each time (TIANGEN, China).

P-IκBα = assay: Western blot, LPS-induced P-IκBα in peritoneal macrophages; details: 20 μg/mL peptide, 100 ng/mL LPS, 30 min, band density ratio to β-actin
Method: as §1

IL-6 production = assay: LPS-stimulated IL-6 production in peritoneal macrophages (ELISA); details: 20 μg/mL peptide, 100 ng/mL LPS, 6 h
Method: Cells were incubated with peptides (0, 5, 10, and 20 μg/mL) with or without 100 ng/mL LPS (from E. coli 0111:B4, Sigma-Aldrich, USA) for 6 h. After treatment, culture medium was collected for TNF-α, IL-1β and IL-6 quantification using enzyme-linked immunosorbent assay (ELISA) kits (Dakewei, China). Cells were washed with ice-cold PBS and lysed by Trizol reagent (Life Tech, USA). Total RNA was extracted for cDNA synthesis to quantify TNF-α, IL-1β and IL-6 transcription levels by qPCR as described in qPCR section.

GWLKKIGKKIERVGQNVRNAAISTLPIAQGAAGVAGALN-NH2 [cecropin-TY1, cecropin antimicrobial peptide from salivary glands of horsefly Tabanus yao, 39 residues, C-terminally amidated, synthesized]
attenuation of LPS-induced nitrite production (nitrite production; 5 μg/mL peptide): about 40.0% | attenuation of LPS-induced nitrite production (nitrite production; 10 μg/mL peptide): ~63.7% | attenuation of LPS-induced nitrite production (nitrite production; 20 μg/mL peptide): ~75.0% | inhibition of LPS-induced P-JNK2 expression (P-JNK2): 66.1% | inhibition of LPS-induced P-IκBα expression (P-IκBα): 74.8% | reduction of LPS-induced IL-6 production (IL-6 production): 76.2%
